Source: patent US20200369728A1, “PEPTIDOMIMETIC MACROCYCLES AND USES THEREOF” (Aileron Therapeutics, Inc., priority 2015, published 2020)
Bridge positions count the residues as written; N and C are the ends. Square brackets hold non-standard residues; d marks the D form. Peptide text beside a SMILES is read from it. R8 = C=CCCCCCC[C@@](C)(N)C(=O)O; S5 = C=CCCC[C@](C)(N)C(=O)O

Experiments:
[1] = system: RKO; experiment: Cell viability assay (MTT), RKO; conditions: read-out: RKO EC50 (72 h)
[2] = system: SJSA-1 cells; experiment: Cell lysis by peptidomimetic macrocycles (LDH release); format: cell-based; conditions: SJSA-1, 1 h
In short: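 Membrane lysis measured as supernatant LDH after a 1 h, 37 °C exposure of SJSA-1 cells, held in RPMI with 1% FBS, to macrocycles at final 6.25-50 μM with 0.5% DMSO. Lytic references were 10 μM melittin and 1% Triton X-100; DMSO alone served as non-lytic control.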

[3] = system: Caspase 3; experiment: Caspase 3 detection assay in SJSA1 cells; format: cell-based; conditions: SJSA1, 48 h, Caspase 3 activation over DMSO-treated cells

Row | SMILES | EC50 [1] [µM] | 6.25 μM % Lysed cells (1 h LDH) [2] [%] | 25 μM % Lysed cells (1 h LDH) [2] [%] | 50 μM % Lysed cells (1 h LDH) [2] [%] | caspase 0.3 μM [3] | caspase 3 μM [3] | caspase 10 μM [3] | caspase 30 μM [3] | caspase 1 μM ([3]; 1 μM)
1 | CC(=O)N[C@@H](CC(C)C)C(=O)N[C@H](C(=O)N[C@@H](Cc1ccccc1)C(=O)N[C@]1(C)CCCCCCC=CCCC[C@@](C)(C(=O)N[C@@H](C)C(=O)N[C@@H](C)C(=O)N[C@@H](Cc2ccccc2)C(=O)N[C@H](C)C(N)=O)NC(=O)[C@H](CC(C)C)NC(=O)[C@H](CCC(N)=O)NC(=O)[C@H](C)NC(=O)[C@H](Cc2c[nH]c3ccccc23)NC(=O)[C@H](Cc2ccc(O)cc2)NC(=O)[C@H](CCC(=O)O)NC1=O)[C@@H](C)O (single isomer, unassigned) [compound 219] | 5 to 15 | 0 | −1 | 2 | 1 | 5 | 17 | 34 | –
2 | CC(=O)N[C@@H](C)C(=O)N[C@@H](C)C(=O)N[C@@H](CC(C)C)C(=O)N[C@H](C(=O)N[C@@H](Cc1ccccc1)C(=O)N[C@]1(C)CCCCCCC=CCCC[C@@](C)(C(=O)N[C@@H](CO)C(=O)N[C@@H](C)C(=O)N[C@@H](C)C(=O)N[C@@H](C)C(=O)N[C@H](C)C(N)=O)NC(=O)[C@H](CC2CCC2)NC(=O)[C@H](CCC(N)=O)NC(=O)[C@H](C)NC(=O)[C@H](Cc2c[nH]c3ccccc23)NC(=O)[C@H](Cc2ccc(O)cc2)NC(=O)[C@H](CCC(=O)O)NC1=O)[C@@H](C)O (single isomer, unassigned) [compound 358] | 15 to 30 | – | – | – | 1 | 3 | 6 | 24 | 2
3 | CC(=O)N[C@@H](CC(C)C)C(=O)N[C@H](C(=O)N[C@@H](Cc1ccccc1)C(=O)N[C@]1(C)CCCCCCC=CCCC[C@@](C)(C(=O)N[C@@H](C)C(=O)N[C@H](C(=O)NCC(N)=O)C(C)C)NC(=O)[C@H](CC(C)C)NC(=O)[C@H](CCC(N)=O)NC(=O)[C@H](C)NC(=O)[C@H](Cc2c[nH]c3ccccc23)NC(=O)[C@H](Cc2ccc(O)cc2)NC(=O)[C@H](C)NC1=O)[C@@H](C)O (single isomer, unassigned) [compound 109] | < 5 | – | – | – | – | 4 | 16 | 25 | –
4 | CC(=O)N[C@@H](CC(C)C)C(=O)N[C@H](C(=O)N[C@@H](Cc1ccccc1)C(=O)N[C@]1(C)CCCCCCC=CCCC[C@@](C)(C(=O)N[C@@H](CO)C(=O)N[C@@H](C)C(=O)N[C@@H](C)C(N)=O)NC(=O)[C@H](C2CCCC2)NC(=O)[C@H](CCC(N)=O)NC(=O)[C@H](C)NC(=O)[C@H](Cc2c[nH]c3ccccc23)NC(=O)[C@H](Cc2ccc(O)cc2)NC(=O)[C@H](CCC(=O)O)NC1=O)[C@@H](C)O (single isomer, unassigned) [compound 150] | 15 to 30 | −1 | 0 | 2 | – | – | – | – | –
5 | CC(=O)N[C@@H](CC(C)C)C(=O)N[C@H](C(=O)N[C@@H](Cc1ccccc1)C(=O)N[C@]1(C)CCCCCCC=CCCC[C@@](C)(C(=O)N[C@@H](C)C(=O)N[C@@H](Cc2c[nH]cn2)C(=O)N[C@@H](Cc2ccccc2)C(=O)N[C@@H](C)C(N)=O)NC(=O)[C@H](CC(C)C)NC(=O)[C@H](CCC(N)=O)NC(=O)[C@H](C)NC(=O)[C@H](Cc2c[nH]c3ccccc23)NC(=O)[C@H](Cc2ccc(O)cc2)NC(=O)[C@H](C)NC1=O)[C@@H](C)O [compound 50] (Ac-LTF[R8]AYWAQL[S5]AHFA-NH2; staple 4-11) | < 5 | – | – | – | – | 8 | 29 | 29 | –
